Laboratory results taken from US20170216295A1, “CCR9 ANTAGONIST COMPOUNDS” (Merck Sharp & Dohme Corp., priority 2014, published 2017).

Key:
[1] = pH-solubility (high-throughput, buffers); type: physicochemical; settings: for Sol. pH 4: 1000 ug compound in 1 mL pH 4 buffer; for Sol. pH 7: 1000 ug compound in 1 mL pH 7 buffer; for Sol. pH 9: 1000 ug compound in 1 mL pH 9 buffer; for Solubility pH 4: pH 4 (Table 6); for Solubility pH 7.4: pH 7.4 (Table 6); for Solubility pH 9: pH 9 (Table 6)
Protocol: Solubility of representative acidic triazoles was measured in 3 buffer systems (pH 4, 7.4 and 9) using an in-house high-throughput solubility method. A stock solution of test article was prepared in DMA (20 mg/ml) and spiked into each buffer system (20× dilution) to target 1 mg/ml concentration. The samples were vortexed briefly and equilibrated for 24 hr at RT. Samples were then filtered using 0.22u PVDF membrane filters and analyzed for drug concentration using HPLC.

[2] = Human liver microsome clearance; type: in vitro ADME; settings: second value of RLM/HLM cell
CCR9 receptor = target: T1, CCR9 receptor (Homo sapiens, UniProt P51686); assay: Calcium mobilization (Ca FLIPR) assay, antagonist mode vs TECK; type: cell-based; settings: for LipE: LipE = pIC50-clogD; for IC50: cells expressing CCR9, TECK at EC80 0.01 uM, read-out: CCR9 Ca2+ IC50
T1 sequence (P51686 1-369): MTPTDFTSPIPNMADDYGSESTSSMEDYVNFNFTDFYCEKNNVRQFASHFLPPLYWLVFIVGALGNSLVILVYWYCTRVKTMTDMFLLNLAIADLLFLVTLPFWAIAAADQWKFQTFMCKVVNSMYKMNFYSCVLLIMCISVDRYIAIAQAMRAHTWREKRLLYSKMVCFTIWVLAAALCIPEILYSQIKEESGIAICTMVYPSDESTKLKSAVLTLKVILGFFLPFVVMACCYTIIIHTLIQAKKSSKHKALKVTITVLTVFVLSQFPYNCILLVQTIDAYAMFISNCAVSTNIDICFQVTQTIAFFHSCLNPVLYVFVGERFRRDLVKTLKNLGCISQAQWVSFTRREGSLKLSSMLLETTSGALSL
Protocol: Calcium Mobilization Assay:
Cells expressing CCR9 receptor (MultiSpan, Hayward, Calif.) were seeded in 384-well plates. Ca^2+ assays were conducted after overnight culture in the plates according to the manufacturer's protocol using Screen Quest™ Fluo-8 no wash kit (AAT Bioquest, Sunnyvale, Calif.). Dye loading buffer was added to the cells and incubated for 45 minutes at 37° C. followed by 15 minutes incubation at room temperature. Compounds in the presence of 0.1% DMSO were applied to the cells during calcium flux measurement. Calcium flux was monitored for 90 seconds with compound application after 10 seconds. For antagonist mode, cells were preincubated with the compound at room temperature for 10 minutes before the application of the control agonist TECK (Preprotech, Rocky Hill, N.J.) at EC80 concentration of 0.01 uM obtained from dose-response curves of control agonist.

Molt-4 cells = assay: Chemotaxis assay of Molt-4 cells towards TECK; type: cell-based; settings: Molt-4 cells in HBSS buffer with 0.1% BSA, TECK at EC80
Protocol: Molt-4 cells were harvested and re-suspended in HBSS buffer with 0.1% BSA or in 100% human serum. Cell suspensions were mixed with compound solutions for 10 min and then seeded onto the upper chamber of the ChemoTX chemotaxis plates with 5 μm pore size polycarbonate membrane from NeuroProbe (Gaithersburg, Md.). EC80 concentration of TECK was applied in the bottom chamber. After 2 hours of incubation at 37° C., the assay was terminated by removing the upper chamber. The cells migrated into the bottom chamber were quantified with CyQUANT solution from Invitrogen (Grand Island, N.Y.).

[3] = Rat liver microsome clearance; type: in vitro ADME; settings: for RLM CL (rat liver microsome hepatic clearance): first value of RLM/HLM cell; for CLint scaled at 2 μM: rat liver microsomes, read-out: Rat Microsome In Vitro CLint; for CLint scaled at 2 μM / Rat Microsome In Vitro CLint: 1 mg/mL rat hepatic microsomes, NADPH, 2 μM
Protocol: Microsomal In-Vitro Clearance:
The test articles (2 μM) were incubated for one hour in 1 mg/mL rat hepatic microsomes with 2 mM NADPH at 37° C. with aliquots removed at t=0, 15, 30 and 60 minutes. Incubations were terminated at the specified times by protein precipitation, and samples were centrifuged. Resultant supernants were analyzed by LC-MS/MS for the amount of incubated compound remaining, and the half life (t1/2) and intrinsic microsomal clearance rate (CLint) of each compound was calculated.

Rat PK (i.v./p.o.) = type: in vivo; settings: for clearance: Sprague Dawley, plasma, iv, read-out: Rat In vivo CL; for Rat In vivo CL: i.v.; for increase in oral bioavailability: compound 39 vs compound 6, compound 42 vs compound 40; for % F (p.o.) / Oral AUC/D: oral; for % F (p.o.): 6: co-solvent (pH 9), 39, 40, 42: co-solvent + surfactant (pH 9); for Oral AUC/D: formulation as in Table 6
Protocol: Sprague Dawley Rats (n=3) were dosed both intravenously and orally with a solution formulation followed by plasma collection at time points providing sufficient coverage of the absorption, distribution, metabolism and excretion phases of the test article. Test article concentrations at each time point were determined by LC-MS detected bioanalytical analysis. Non-compartmental pharmacokinetic analysis of the intravenous bioanalytical data provided area under the curve, clearance, volume of distribution, and terminal half life parameters while similar analysis of plasma samples from animals dosed orally provided area under the curve, bio-available fraction and oral terminal half life pharmacokinetic parameters.
Rats (n of 3) were dosed both intravenously and orally with the various compounds. Plasma samples were collected at time points chosen to provide sufficient coverage of the absorption, distribution, metabolism and excretion phases of the test compound. LC-MS detected bioanalytical analysis was performed on the plasma samples utilizing a standard curve and quality control samples to provide enough precision and accuracy to determine the concentrations test article for plasma from each time point. Non-compartmental pharmacokinetic analysis of the intravenous bioanalytical data provided area under the curve, clearance, volume of distribution, terminal half life parameters while similar analysis of plasma samples from animals dosed orally provided area under the curve, bio-available fraction and oral terminal half life pharmacokinetic parameters (see FIG. 1).

[4] = Rat plasma protein binding (equilibrium dialysis); type: in vitro ADME; settings: for fraction unbound at 6 h: read-out: Rat Plasma Protein Binding (PPB) Fu; for Rat Plasma Protein Binding (PPB) Fu: fraction unbound
Protocol: (§1) Plasma and Microsome Protein Binding:
(§2) Protein binding was measured via high throughput equilibrium dialysis with the HTDialysis device fitted with a 12,000 to 14,000 Da molecular weight cutoff membrane. Rat plasma or 1 mg/mL rat hepatic microsomes spiked with test article were dialyzed vs. phosphate buffer for 6 hours. Aliquots were removed from both sides of the membrane and diluted with equal volumes of the opposite matrix. Following protein precipitation and centrifugation, the resultant matrix matched supernatants were analyzed by LC-MS to compare the plasma or microsome dialysate test article signal to the buffer signal. Test article stability was monitored during the course of the assay.

[5] = Rat microsome protein binding (equilibrium dialysis); type: in vitro ADME; settings: rat liver microsomes, 1 mg/mL rat hepatic microsomes, read-out: Rat Microsomal Binding Fu
Protocol: as §1, §2

[6] = In-vitro precipitation time in simulated gastric and intestinal fluids; type: physicochemical; settings: oral dosing solution
Protocol: Dosing solutions at 1 mg/mL for rat PK studies were prepared using either a pH+co-solvent approach or pH+cosolvent+surfactant approach. The total amounts of cosolvent and surfactant used in the solution formulations ranged from 5-8% v/v and q.s. with pH 9 phosphate buffer. Solutions were assessed for their potential for in-vivo precipitation using an in-vitro dilution test (1:1, 1:4 and 1:9) in simulated gastric and intestinal fluids.

| Sol. pH 4 [1] | Sol. pH 7 [1] | Sol. pH 9 [1] | HLM CL (human liver microsome hepatic clearance) [2] | LipE (CCR9 receptor) | IC50 (Molt-4 cells; Homo sapiens) | RLM CL (rat liver microsome hepatic clearance) [3] | Vd (in words) (Rat PK (i.v./p.o.)) | in vivo CL (in words) (Rat PK (i.v./p.o.)) | fraction unbound at 6 h [4] | IC50 (CCR9 receptor) | fraction unbound at 6 h [5] | CLint scaled at 2 μM [3] | Rat In vivo CL as % Hepatic Blood Flow (Rat PK (i.v./p.o.)) | clearance (Rat PK (i.v./p.o.)) | Rat Plasma Protein Binding (PPB) Fu [4] | Rat Microsome In Vitro CLint [3] | Rat In vivo CL (Rat PK (i.v./p.o.)) | Structure (SMILES) | also measured |
| --- | --- | --- | --- | --- | --- | --- | --- | --- | --- | --- | --- | --- | --- | --- | --- | --- | --- | --- | --- |
| 132 ug/mL | 999 ug/mL | 989 ug/mL | 5 mL/min/kg | 5.9 | – | 15 mL/min/kg | low | relatively low | – | 13 nM | – | – | 9% | – | 0.010 | 21 mL/min/kg | 5 mL/min/kg | COCc1nc2nc(O)c(Cc3ccc(C(C)(C)C)cc3)c(COC)n2n1 [Compound 38, 6-(4-(tert-butyl)benzyl)-2,7-bis(methoxymethyl)-[1,2,4]triazolo[1,5-a]pyrimidin-5-ol] | solubility (in words) [1]: improved; IC50 (Molt-4 cells): 200 nM; metabolic stability (in words) [3]: improved; exposure (in words) (Rat PK (i.v./p.o.)): good |
| – | – | – | – | – | – | – | – | – | – | – | – | – | 15% | – | 0.010 | 171 mL/min/kg | 8 mL/min/kg | COCc1nc2nc(C)c(Cc3ccc(C(C)(C)C)cc3)c(O)n2n1 [Compound 41] | – |
| – | – | – | – | – | – | – | – | – | – | – | – | – | 7% | – | 0.010 | 373 mL/min/kg | 4 mL/min/kg | Cc1nc2nc(OCCO)nn2c(O)c1Cc1ccc(C(C)(C)C)cc1 [Compound 42] | increase in solubility at pH 4 ([1]; compound 42 vs compound 40): ~7 fold; increase in solubility at pH 7.4 ([1]; compound 42 vs compound 40): ~30 fold; Solubility pH 4 [1]: 0.045 mg/ml; Solubility pH 7.4 [1]: 0.61 mg/ml; Solubility pH 9 [1]: 1 mg/ml; increase in oral bioavailability (Rat PK (i.v./p.o.)): 3 fold; % F (p.o.) (Rat PK (i.v./p.o.)): 43%; Oral AUC/D (Rat PK (i.v./p.o.)): 1.25 ug · hr/ml/(mg/kg) |

More lines, now with the values behind:

| Structure (SMILES) | Sol. pH 4 [1] | Sol. pH 7 [1] | Sol. pH 9 [1] | HLM CL (human liver microsome hepatic clearance) [2] | LipE (CCR9 receptor) | IC50 (Molt-4 cells; Homo sapiens) | RLM CL (rat liver microsome hepatic clearance) [3] | Vd (in words) (Rat PK (i.v./p.o.)) | in vivo CL (in words) (Rat PK (i.v./p.o.)) | fraction unbound at 6 h [4] | IC50 (CCR9 receptor) | fraction unbound at 6 h [5] | CLint scaled at 2 μM [3] | Rat In vivo CL as % Hepatic Blood Flow (Rat PK (i.v./p.o.)) | clearance (Rat PK (i.v./p.o.)) | Rat Plasma Protein Binding (PPB) Fu [4] | Rat Microsome In Vitro CLint [3] | Rat In vivo CL (Rat PK (i.v./p.o.)) | also measured |
| --- | --- | --- | --- | --- | --- | --- | --- | --- | --- | --- | --- | --- | --- | --- | --- | --- | --- | --- | --- |
| Cc1nc2ncnn2c(O)c1Cc1ccc(C(C)(C)C)cc1 [Compound 11] | 13 ug/mL | 136 ug/mL | > 1000 ug/mL | 19 mL/min/kg | 4.4 | 480 nM | 51 mL/min/kg | moderate | high | – | – | – | – | – | – | – | – | – | half-life (in words) (Rat PK (i.v./p.o.)): short; oral bioavailability (in words) (Rat PK (i.v./p.o.)): low |
| COCc1nc2ncnn2c(O)c1Cc1ccc(C(C)(C)C)cc1 [Compound 26] | 3 ug/mL | 135 ug/mL | > 1000 ug/mL | 8 mL/min/kg | – | 42 nM | 48 mL/min/kg | – | – | 0.01 | 8 nM | 0.85 | 373 mL/min/kg | 10% | 5 mL/min/kg | – | – | – | – |
| CC(C)(C)c1ccc(Cc2c(C3CCC3)nc3ncnn3c2O)cc1 [Compound 27] | 4 ug/mL | 58 ug/mL | 910 ug/mL | 13 mL/min/kg | – | 20 nM | 37 mL/min/kg | – | – | 0.01 | 5 nM | 0.255 | 111 mL/min/kg | 32% | 17 mL/min/kg | – | – | – | – |
| CCc1nc2ncnn2c(O)c1Cc1ccc(C(C)(C)COC)cc1 [Compound 36] | 62 ug/mL | > 1000 ug/mL | > 1000 ug/mL | 20 mL/min/kg | 5.9 | 60 nM | 49 mL/min/kg | – | – | – | 13 nM | – | – | – | – | – | – | – | – |
| CCc1nc2ncnn2c(O)c1Cc1ccc(C(C)(C)C#N)cc1 [Compound 37] | > 1000 ug/mL | 994 ug/mL | 982 ug/mL | 1 mL/min/kg | 5.6 | 500 nM | 7 mL/min/kg | increased | lower | 0.011 | 64 nM | 0.85 | 8 mL/min/kg | 3% | 1 mL/min/kg | – | – | – | metabolic stability (in words) [3]: increased; exposure (in words) (Rat PK (i.v./p.o.)): highest exposure for the series; half-life (in words) (Rat PK (i.v./p.o.)): extended |
| Cc1nc2nc(CO)nn2c(O)c1Cc1ccc(C(C)(C)C)cc1 [Compound 39] | – | – | – | – | – | – | – | – | – | – | – | – | – | – | – | – | – | – | Solubility pH 4 [1]: 0.024 mg/ml; Solubility pH 7.4 [1]: 0.26 mg/ml; Solubility pH 9 [1]: 1 mg/ml; In-vitro Precipitation Time (Visual assessment), SGF ([6]; simulated gastric fluid): SGF: 60 min; In-vitro Precipitation Time (Visual assessment), SIF ([6]; simulated intestinal fluid): SIF: >240 min; increase in oral bioavailability (Rat PK (i.v./p.o.)): approximately 4 fold; % F (p.o.) (Rat PK (i.v./p.o.)): 43%; Oral AUC/D (Rat PK (i.v./p.o.)): 0.32 ug · hr/ml/(mg/kg) |
